The values that follow come from patent US12279616B2, “Stabilization of dimpropyridaz suspensions by triethylammonium chloride” (BASF SE, priority 2019, dated 2025).

This data set is described as follows: Water-solubility of dimpropyridaz. Format: physicochemical. The conditions noted are these: printed as at 20° C. ... at 25° C. The protocol: Dimpropyridaz is a pesticide that has a water-solubility at 20° C. of approximately 4-5 wt % at 25° C. The water-solubility of dimpropyridaz is comparably high and so Ostwald-ripening represents a crucial issue for Dimpropyridaz suspension concentrates.

For `CCN(C(=O)c1cnn(C(C)C(C)C)c1C)c1ccnnc1` (racemic) [Dimpropyridaz, 1-[1,2-dimethylpropyl]-N-ethyl-5-methyl-N-pyridazin-4-yl-1H-pyrazole-4-carboxamide], the water-solubility is on record as 4-5 wt %.
